# Where two headings read alike, the source gives them in different places.
# Tests used:
# [1] = system: LPS-induced nitric oxide (NO) production in RAW 264.7 cells; test: Nitric oxide production in LPS-stimulated macrophages (Griess); format: cell-based, mouse; conditions: Mus musculus; LPS-stimulated RAW264.7, nitrite 24 h after LPS
# In short: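 RAW 264.7 macrophages (2×10^5 cells/well) were pretreated with compound for 1 h and then stimulated with 100 ng/μL LPS for 24 h. NO was measured as nitrite in the medium by the Griess reaction. Viability was checked in parallel by MTT.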
# [2] = system: MCF-7 (ER+, Her2−) human breast cancer cells; test: MTT cell viability assay, MCF-7 cells; format: cell-based
# In short: (§1)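 Cells (2×10^3 to 1×10^4 cells/well) were seeded overnight, then exposed to compounds for 24 h to 72 h. Growth was measured by MTT colorimetric assay, with viability calculated as OD570 of treated over vehicle (0.5% DMSO) control ×100.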
# [3] = system: PC3 (Prostate); test: MTT cell viability assay, PC3; format: cell-based; conditions: 24 h
# Experimental: (§2) Normal or cancer cells (2×10^3 to 1×10^4 cells/well) were seeded in 96-well plate for overnight and treated with different compounds for 24 h to 72 h. Cells growth were determined by MTT-based colorimetric assays according to. Viability of the test cells treated with vehicle (0.5% DMSO) only was defined as 100% viable. Survival of cells after treatment with DETDs was calculated using the following formula: viable cell number (%)=OD570 (treated cell culture)/OD570 (vehicle control)×100.
# (§3) Based on toxicity results of DET and DETDs on different breast cancer and melanoma cell lines, we selected DETD-6, -32, -35 and -39, under the consideration of structure activity relationship for evaluating their suppression effect against other cancer types of cell line with indicated tumor origin in Table 5. […] The cells were treated with compounds for 24 h and then subjected to MTT assays.
# [4] = system: HCT-116 colon cancer cell line; test: MTT cell viability assay, HCT-116; format: cell-based; conditions: Homo sapiens, 24 h
# Experimental: as §2, §3
# [5] = system: A498 kidney cancer cell line; test: MTT cell viability assay, A498; format: cell-based; conditions: Homo sapiens, 24 h
# Experimental: as §2, §3
# [6] = system: PC6 lung cancer cell line; test: MTT cell viability assay, PC6; format: cell-based; conditions: 24 h
# Experimental: as §2, §3
# [7] = system: RAW264.7 (normal macrophage); test: MTT cell viability assay, RAW264.7 macrophages; format: cell-based, mouse; conditions: Mus musculus, RAW264.7, 24 h
# In short: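 RAW264.7 macrophages (2×10^5 cells/well) pretreated with compounds 1 h, then incubated 24 h with or without 100 ng/μL LPS. Viability by MTT colorimetric assay run in parallel with Griess nitrite measurement.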
# [8] = system: U937 lymphoma line; test: MTT cell viability assay, U937; format: cell-based; conditions: Homo sapiens, U-937, 24 h
# Experimental: as §2, §3
# [9] = system: TS/A (ER+, Her2−) murine mammary cancer cells; test: MTT cell viability assay, TS/A cells; format: cell-based; conditions: Mus musculus
# In short: as §1
# [10] = system: A2058 (BRAF mutation); test: MTT cell viability assay, A2058 melanoma; format: cell-based, human; conditions: Homo sapiens, A2058, 24 h
# In short: (§4)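 Cells seeded at 2×10^3 to 1×10^4 cells/well overnight, then exposed to compounds for 24 h to 72 h. Growth measured by MTT colorimetric assay; viability expressed as OD570 treated/OD570 vehicle (0.5% DMSO) ×100.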
# [11] = system: KATO III stomach cancer cell line; test: MTT cell viability assay, KATO III; format: cell-based; conditions: Homo sapiens, 24 h
# Experimental: as §2, §3
# [12] = system: A375 (BRAF mutation); test: MTT cell viability assay, A375 melanoma; format: cell-based, human; conditions: Homo sapiens, A-375, 24 h, 24 h, MTT; read-out: IC50 on cell viability, A375 (BRAF mutation)
# In short: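 A375 cells were seeded at 2×10^3 to 1×10^4 per well overnight and then exposed to compounds for 24 h to 72 h. Viability was measured by MTT absorbance at OD570 relative to 0.5% DMSO vehicle (100%), and IC50 was derived from it. Combination with PLX4032 was scored by combination index.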
# [13] = system: Melanocyte (Normal cells); test: MTT cell viability assay, normal melanocytes; format: cell-based, human; conditions: Homo sapiens, Melanocyte, 24 h
# In short: as §4
# [14] = system: SK-N-MC neuroepithelioma line; test: MTT cell viability assay, SK-N-MC; format: cell-based; conditions: Homo sapiens, 24 h
# Experimental: as §2, §3
# [15] = system: NES-SA uterus cancer cell line; test: MTT cell viability assay, NES-SA; format: cell-based; conditions: 24 h
# Experimental: as §2, §3
# [16] = system: MDA-MB-231 (ER−, PR−, Her2−) human breast cancer cells; test: MTT cell viability assay, MDA-MB-231 cells; format: cell-based; conditions: Homo sapiens
# In short: as §1
# [17] = system: HTB-68 (NRAS mutation); test: MTT cell viability assay, HTB-68 melanoma; format: cell-based, human; conditions: Homo sapiens, 24 h
# In short: as §4
# [18] = system: MeWo (No NRAS or BRAF mutation); test: MTT cell viability assay, MeWo melanoma; format: cell-based, human; conditions: Homo sapiens, MeWo, 24 h
# In short: as §4
# [19] = system: U-87MG brain cancer cell line; test: MTT cell viability assay, U-87MG; format: cell-based; conditions: Homo sapiens, 24 h
# Experimental: as §2, §3
# [20] = system: B16-F10 (NRAS mutation); test: MTT cell viability assay, B16-F10 melanoma; format: cell-based; conditions: Mus musculus, B16-F10, 24 h
# In short: as §4
# [21] = system: M10 normal mammary epithelial cells; test: MTT cell viability assay, M10 normal cells; format: cell-based, human; conditions: Homo sapiens, Epithelial cell, 24 h
# In short: as §1
# [22] = system: melanoma cell lines B16-F10, MeWo, A375, A2058, HTB-68; test: MTT cell viability assay, all melanoma cell lines; format: cell-based; conditions: 24 h, read-out: IC50 values over all types of melanoma cell lines
# Experimental: as §2
# Several genes are involved in melanoma development and pathology; specifically, mutation in V-raf murine sarcoma viral oncogene homolog B1 (B-RAF) occurs approximately 50-60% and in neuroblastoma RAS viral oncogene homolog (N-RAS) occurs about 30% of malignant melanomas. A spectrum of wild-type or mutated melanoma cell lines including B16-F10, MeWo, A375, A2058, HTB-68, and melanocyte were used to study anti-melanoma cell proliferation activity of parental phytocompound DET and newly synthesized DETDs.
# [23] = MCF7, 24 h, read-out: IC50 on cell viability, MCF-7 (ER+, Her2−)
# [24] = 24 h, read-out: IC50 on cell viability, TS/A (ER+, Her2−)
# [25] = MDA-MB-231, 24 h, read-out: IC50 on cell viability, MDA-MB-231 (ER−, PR−, Her2−)
# [26] = 24 h, read-out: IC50 on cell viability, B16-F10 (NRAS mutation)
IC50 [1] [µM],"IC50 [2, 23] [µM]","IC50 [9, 24] [µM]",IC50 [10] [µM],IC50 [12] [µM],"IC50 [16, 25] [µM]",IC50 [17] [µM],IC50 [18] [µM],"IC50 [20, 26] [µM]",IC50 [22] [µM],Compound,IC50 [7] [µM],IC50 [13] [µM],IC50 [21] [µM],other results
2.6,4.3,1.9,> 10,> 10,3.9,> 10,> 10,4.2,,C=C1C(=O)O[C@H]2CC3=C[C@@H](C/C(C)=C/[C@@H](OC(=O)c4ccc(OC)cc4)[C@H]12)OC3=O [DETD-32],> 10,> 10,> 7.5,"IC50 ([2]; MCF7, Table 5, 24 h, read-out: IC50 viability MCF-7 (Breast)): 4.3 µM; IC50 [3]: 6.2 µM; IC50 [4]: 0.36 µM; IC50 [5]: 1.48 µM; IC50 [6]: 0.47 µM; IC50 [8]: 0.39 µM; IC50 ([9]; Table 5, 24 h, read-out: IC50 viability TS/A (mouse) (Breast)): 1.9 µM; IC50 [11]: 0.82 µM; IC50 [14]: 0.51 µM; IC50 [15]: 0.5 µM; IC50 ([16]; MDA-MB-231, Table 5, 24 h, read-out: IC50 viability MDA-MB-231 (Breast)): 3.9 µM; IC50 [19]: 0.42 µM; IC50 ([20]; Table 5, 24 h, read-out: IC50 viability B16-F10 (mouse) (Skin)): 4.2 µM"
> 10,> 7.5,3.1,6.6,3.4,4.9,7,7.9,6.6,1.6 to 9.9,C=C1C(=O)OC2CC3=C[C@@H](C/C(C)=C/C(OC(=O)[C@H](C)c4ccc5cc(OC)ccc5c4)[C@H]12)OC3=O (stereo partly shown) [DETD-54],> 10,> 10,> 7.5,
2.9,> 7.5,2.8,6.1,2.6,4.1,5.3,9,4.8,1.6 to 9.9,C=C1C(=O)OC2CC3=C[C@@H](C/C(C)=C/[C@@H](OC(=O)C(C)(OC)c4ccc5ccccc5c4)[C@H]12)OC3=O (stereo partly shown) [DETD-55],> 10,> 10,> 7.5,
3,4.5,1.9,5.2,2.5,4.2,4.5,7.6,5.3,1.6 to 9.9,C=C1C(=O)OC2CC3=C[C@@H](C/C(C)=C/[C@@H](OC(=O)[C@@H](OC)c4ccc5ccccc5c4)[C@H]12)OC3=O (stereo partly shown) [DETD-56],> 10,> 10,> 7.5,

# From patent US10238631B2, “Sesquiterpene derivatives and their use in inflammation or cancer treatment” (Academia Sinica, priority 2014, dated 2019)
